From PMC8703873, “Structure and Activity of a Selective Antibiofilm Peptide SK-24 Derived from the NMR Structure of Human Cathelicidin LL-37” (Pharmaceuticals, 2021)
Values after ≈ are worked out from the molar mass of the structure shown. Non-standard residues stand in square brackets, D forms with d. Residues, ends and D or L forms follow the SMILES beside them. Bip = N[C@@H](Cc1ccc(-c2ccccc2)cc1)C(=O)O

What was measured:
[1] = tested on: S. aureus USA300 LAC preformed biofilms; experiment: Disruption of preformed biofilms (XTT); type: cell-based, Staphylococcus aureus
Description: (§1) The antibiofilm activities of peptides against the preformed biofilms of A. baumannii B28-16 and S. aureus USA300 LAC were evaluated as follows. Bacteria in the logarithmic growth phase were adjusted to a cell density of 10^5 colony forming unit (CFU)/mL. Two hundred microliter cells were seeded into each well of the 96-well plates. The plates were incubated at 37 °C to allow for the formation of biofilm for 24, 48, and 72 h, respectively. The planktonic cells were then removed, followed by a wash. The biofilms were then treated with 20 µL of 10× two-fold diluted peptides and 180 µL of fresh TSB media for 24 h at 37 °C. Cultures treated with water without peptide served as the positive control, and media treated with water was used as the negative control. To quantify the antibiofilm activity of the peptides, the XTT [2, 3-bis (2-methyloxy-4-nitro-5-sulfophenyl)-2H-tertazolium-5-carboxanilide] assay staining method was used to quantitate the live cells. Absorbance was read at 450 nm using a ChroMate microliter plate reader. The percentage biofilm growth for the peptide was plotted by assuming 100% biofilm growth in untreated bacterial control wells. Data were represented as mean ± standard deviation (SD). The data are statistically significant at p < 0.05. Plots were generated using GraphPad Prism v7 (GraphPad Software, San Diego, CA, USA).

P. aeruginosa E411-17 = type: cell-based, Pseudomonas aeruginosa; details: E411-17
Description: (§2) The antibiotic-resistant pathogens used in this study include the Gram-positive bacteria Enterococcus faecium V286-17 and Staphylococcus aureus USA300 LAC and the Gram-negative bacteria Klebsiella pneumoniae E406-17, Acinetobacter baumannii B28-16, Pseudomonas aeruginosa E411-17, and Escherichia coli E423-17. All bacteria were cultivated in tryptic soy broth (TSB) at 37 °C, 220 rpm.
(§3) The antibacterial activity of peptides was evaluated using a standard broth microdilution protocol with minor modifications. In brief, peptides were made at various concentrations, 10 μL per well in a 96-well polystyrene microplate. Logarithmic phase bacterial cultures (i.e., optical density (OD) at 600 nm ≈ 0.5) were diluted to 0.001 OD, and aliquots of 90 μL were added to each well. Untreated bacterial culture and medium were included as positive and negative controls, respectively. Plates were incubated at 37 °C overnight and read at 630 nm using a ChroMate Microplate Reader (Awareness Technology, Palm City, FL, USA). […] Our previously designed peptide 17BIPHE2 [32] was included as a positive control, and RI-10, a peptide without antibacterial activity in rich media, was utilized as a negative control.

[2] = tested on: A. baumannii B28-16 preformed biofilms; experiment: Disruption of preformed biofilms (XTT); type: cell-based, Acinetobacter baumannii
Description: as §1

E. faecium V284-17 = type: cell-based, Enterococcus faecium; details: V284-17
[3] = tested on: clinical and antibiotic-resistant pathogens (panel of Table 3); type: cell-based; details: all six pathogens
Description: as §2, §3

E. coli E423-17 = type: cell-based, Escherichia coli
Description: as §2, §3

[4] = tested on: S. aureus USA300 LAC preformed biofilms; details: S. aureus USA300 LAC and other clinical strains (USA200, USA400, Mu50); cited from earlier work
Description: Here, we compared the antibiofilm activity of SK-24 with that of GF-17, GI-20, and 17BIPHE2 against the 24 h preformed biofilms of S. aureus USA300. […] Only SK-24 a ...

A. baumannii B28-16 = experiment: Membrane permeabilization (propidium iodide); type: cell-based, Acinetobacter baumannii; details: peptide 16 µM; propidium iodide fluorescence, 2 h, PBS, 37 °C
Description: Membrane permeabilization was evaluated as described. In brief, bacteria were inoculated and grown overnight. A second inoculation was made and let bacteria grow to the exponential phase. Bacteria were then spun, washed, and resuspended in the same volume of PBS. A series of peptide solutions (10×) was made via two-fold dilution in a 96-well plate (10 µL each). All wells were aliquoted with 2 µL of propidium iodide (20 µM), followed by adding 88 µL of S. aureus USA300 or A. baumannii B28-16 (OD600 ~0.11 in PBS). The plate was incubated at 37 °C with continuous shaking at 100 rpm in a FLUOstar Omega microplate reader (BMG Labtech Inc., Cary, NC, USA). Fluorescence was recorded every 5 min for 2 h with excitation and emission wavelengths of 485 and 620 nm. The data were analyzed by the vendor’s software using averaged values from duplicated experiments.

SMILES: CC(C)C[C@H](NC(=O)[C@H](CC(N)=O)NC(=O)[C@H](CCCNC(=N)N)NC(=O)[C@@H](CC(C)C)NC(=O)[C@H](Cc1ccc(-c2ccccc2)cc1)NC(=O)[C@H](CC(=O)O)NC(=O)[C@H](CCCCN)NC(=O)[C@@H](CC(C)C)NC(=O)[C@H](CCCNC(=N)N)NC(=O)[C@H](CCC(N)=O)NC(=O)[C@@H](NC(=O)[C@@H](CC(C)C)NC(=O)[C@H](CCCNC(=N)N)NC(=O)[C@H](CCCCN)NC(=O)[C@H](Cc1ccc(-c2ccccc2)cc1)NC(=O)CN)C(C)C)C(=O)N[C@H](C(N)=O)C(C)C [Peptide 17BIPHE2] (H-G[Bip]KR[dL]VQR[dL]KD[Bip][dL]RNLV-NH2; N-terminus assumed)
- Antibiofilm effect on 24 h preformed biofilms ([1]; 24 h preformed biofilms of S. aureus USA300, XTT): antibiofilm effect in a dose-dependent manner
- Staphylococcal biofilm remaining (reduced to) ([1]; 24 h preformed biofilms, peptide 32 μM, relative to untreated control = 100%): ~ 25%
- MIC (P. aeruginosa E411-17): 8 µM (≈ 18 µg/mL)
- Biofilm disruption ([2]; 72 h preformed biofilms, peptide 64 μM, highest concentration tested): ~ 70%
- Disruption of 48 h biofilms ([2]; biofilms established for 48 h, 24 h treatment): dose-dependent biofilm disruption
- Reduction of 24 h biofilms ([2]; biofilms established in 24 h, 24 h treatment): dose-dependent manner
- MIC (E. faecium V284-17): 2 µM (≈ 4.51 µg/mL)
- MIC range over the pathogens of Table 3 [3]: 2 to 8 µM
- MIC (E. coli E423-17): 4 µM (≈ 9.02 µg/mL)
- Disruption of 24 h preformed biofilms (words, found previously) [4]: highly effective
- Membrane permeation (A. baumannii B28-16): superior to SK-24
